The text below walks through data of ChEMBL document CHEMBL1201862, “PubChem BioAssay data set” (2004).

Among the test systems are SNB-19; HOP-62; M14; OVCAR-3; NCI/ADR-RES; 786-0; MDA-MB-231; MDA-MB-435; HCC 2998; OVCAR-4; SNB-75; NCI-H460; OVCAR-5; IGROV-1; RPMI-8226; UO-31; SF-268; PC-3; EKVX; SF-539.
What all share (experiment): NCI tumour cell line growth inhibition, 48 h

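Cultured in 96-well plates, cells were exposed to test compound for 48 hours across five concentrations. GI50 is the concentration that inhibits growth by half.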 Activity calls are given as the source filed them. No stated cut-off is given here; in the data, active = GI50 up to about 1.1 µM and inactive = higher.

Consider `COC(=O)/C=C/c1cnc2c(c1)oc(=O)n2CCc1ccccn1`, for which the GI50 was > 100 µM (inactive) in the assay with SNB-19; > 100 µM (inactive) in the assay on HOP-62; > 100 µM (inactive) in the assay on M14; > 100 µM (inactive) with OVCAR-3; 40.1 µM (inactive) with NCI/ADR-RES; > 100 µM (inactive) in the assay with 786-0. Also, the GI50 with MDA-MB-231 was > 100 µM (inactive); in the assay on MDA-MB-435, 20.8 µM (inactive); in the assay on HCC 2998, > 100 µM (inactive); in the assay on OVCAR-4, > 100 µM (inactive); with SNB-75, > 100 µM (inactive); in the assay on NCI-H460, > 100 µM (inactive). Also, the GI50 is > 100 µM (inactive) in the assay with OVCAR-5; > 100 µM (inactive) in the assay on IGROV-1; > 100 µM (inactive) in the assay with RPMI-8226; > 100 µM (inactive) in the assay with UO-31; > 100 µM (inactive) with SF-268; 90.2 µM (inactive) in the assay on PC-3. Besides, the GI50 in the assay with EKVX and with SF-539 was > 100 µM (inactive) in each case.

As for `CN(NC(=O)c1ccc(Cl)cc1)C1=NCCCCN1`, the GI50 in the assay with SNB-19, with HOP-62, in the assay on M14, with OVCAR-3, in the assay on NCI/ADR-RES and in the assay with 786-0 was > 100 µM (inactive) in each case. Further, the GI50 with MDA-MB-231, in the assay with MDA-MB-435, in the assay on HCC 2998, with OVCAR-4, with SNB-75 and with NCI-H460 was > 100 µM (inactive) in each case. Moreover, the GI50 in the assay on OVCAR-5, in the assay on IGROV-1, in the assay on RPMI-8226, in the assay with UO-31, with SF-268 and in the assay with PC-3 was > 100 µM (inactive) in each case. In addition, the GI50 in the assay with EKVX and in the assay on SF-539 was > 100 µM (inactive) in each case.

For the molecule `CC(C)(C)c1ccc(OCCOc2ccc(C(C)(C)C)cc2NC=O)c(NC=O)c1`, the GI50 was 18.2 µM (inactive) in the assay with SNB-19; 6.92 µM (inactive) with HOP-62; 5.48 µM (inactive) with M14; 14.4 µM (inactive) with OVCAR-3; 5.68 µM (inactive) in the assay on NCI/ADR-RES; 8.17 µM (inactive) with 786-0. The GI50 is 11.4 µM (inactive) in the assay on MDA-MB-231; 6.85 µM (inactive) in the assay on MDA-MB-435; 5.12 µM (inactive) with HCC 2998; 7.01 µM (inactive) in the assay on OVCAR-4; 19.3 µM (inactive) with SNB-75; 4.01 µM (inactive) in the assay on NCI-H460. Also, the GI50 is 22.4 µM (inactive) in the assay with OVCAR-5; 11.3 µM (inactive) in the assay on IGROV-1; 2.32 µM (inactive) in the assay with RPMI-8226; 5.69 µM (inactive) with UO-31; 15.1 µM (inactive) in the assay on SF-268; 8.71 µM (inactive) in the assay on PC-3. Also, the GI50 in the assay with EKVX is 10.5 µM (inactive); with SF-539 it was 8.77 µM (inactive).

`COCCOCCOC1=C(Cl)C(=O)c2c(O)ccc(O)c2C1=O`: the GI50 is 13.5 µM (inactive) in the assay with SNB-19; 2.39 µM (inactive) with HOP-62; 1.59 µM (inactive) with M14; 1.63 µM (inactive) in the assay on OVCAR-3; 2.93 µM (inactive) with NCI/ADR-RES; 1.12 µM (active) in the assay on 786-0. Besides, the GI50 is 2.01 µM (inactive) with MDA-MB-231; 1.74 µM (inactive) in the assay with MDA-MB-435; 18.6 µM (inactive) in the assay with HCC 2998; 1.85 µM (inactive) in the assay on OVCAR-4; 15.6 µM (inactive) in the assay with SNB-75; 12.9 µM (inactive) in the assay on NCI-H460. Further, the GI50 in the assay with OVCAR-5 is 9.04 µM (inactive); in the assay with IGROV-1, 2.62 µM (inactive); with RPMI-8226, 0.718 µM (active); in the assay on UO-31 it was 2.16 µM (inactive); with SF-268, 2.59 µM (inactive); in the assay with PC-3, 5.42 µM (inactive). Moreover, the GI50 in the assay on EKVX was 8.57 µM (inactive); in the assay on SF-539, 1.67 µM (inactive).

For the molecule `COc1ccc2c(c1)[n+]([O-])c(/C(C)=N/NC(N)=S)c(C)[n+]2[O-]`, the GI50 with SNB-19 is > 100 µM (inactive); in the assay with HOP-62, 75.3 µM (inactive); with M14, 37.6 µM (inactive); in the assay with OVCAR-3, 33.9 µM (inactive); in the assay with NCI/ADR-RES it was 28.8 µM (inactive); in the assay with 786-0, 43.6 µM (inactive). In addition, the GI50 with MDA-MB-231 is 89.7 µM (inactive); in the assay on MDA-MB-435, 78.3 µM (inactive); in the assay with HCC 2998, 20.5 µM (inactive); in the assay on OVCAR-4, 58.9 µM (inactive); in the assay with SNB-75 it was 79.4 µM (inactive); in the assay on NCI-H460, 27.8 µM (inactive). Moreover, the GI50 with OVCAR-5 was > 88.5 µM (inactive); with IGROV-1, > 88.1 µM (inactive); in the assay with RPMI-8226, 57 µM (inactive); in the assay on UO-31, 49.7 µM (inactive); with SF-268, 46.3 µM (inactive); in the assay with PC-3 it was > 100 µM (inactive). Further, the figures for the GI50 in the assay with EKVX and in the assay with SF-539 were 44 µM (inactive) and > 59.8 µM (inactive), respectively.

For `Cc1ccc2[nH]c3c(C)c4cc[n+](C)cc4c(C)c3c2c1`, the GI50 is 0.499 µM (active) in the assay on SNB-19; 0.774 µM (active) in the assay with HOP-62; 6.43 µM (inactive) in the assay with M14; 2.84 µM (inactive) in the assay with OVCAR-3; 7.93 µM (inactive) in the assay with NCI/ADR-RES; 0.328 µM (active) in the assay on 786-0. Moreover, the GI50 with MDA-MB-231 is 0.931 µM (active); with MDA-MB-435, 2.45 µM (inactive); in the assay with HCC 2998 it was 2.06 µM (inactive); in the assay with OVCAR-4 it was 2.54 µM (inactive); in the assay on SNB-75 it was 0.251 µM (active); in the assay with NCI-H460, 3.66 µM (inactive). Besides, the GI50 in the assay on OVCAR-5 is 5 µM (inactive); in the assay with IGROV-1, 1.19 µM (inactive); in the assay on RPMI-8226, 16.1 µM (inactive); in the assay with UO-31, 5.19 µM (inactive); with SF-268, 0.441 µM (active); in the assay on PC-3 it was 0.63 µM (active). Also, the GI50 with EKVX is 1.27 µM (inactive); in the assay on SF-539 it was 0.849 µM (active).

In the case of `CN1CCC[N+](C)=C1c1ccccc1`, the GI50 in the assay on SNB-19, in the assay on HOP-62, with M14, in the assay on OVCAR-3, in the assay on NCI/ADR-RES and with 786-0 was > 100 µM (inactive) each time. The GI50 in the assay with MDA-MB-231, in the assay with MDA-MB-435, with HCC 2998, with OVCAR-4, in the assay with SNB-75 and with NCI-H460 was > 100 µM (inactive) each time. For the same molecule, the GI50 in the assay with OVCAR-5, in the assay with IGROV-1, with RPMI-8226, with UO-31, in the assay with SF-268 and with PC-3 was > 100 µM (inactive) throughout. Besides, the GI50 in the assay on EKVX and in the assay on SF-539 was > 100 µM (inactive) each time.

On to `CC1CCCN1CCCOC(=O)c1ccc(OC2C=CCCC2)cc1` (stereo not given), for which the GI50 in the assay on SNB-19 is 38.2 µM (inactive); in the assay with HOP-62, 20.1 µM (inactive); with M14, 16.2 µM (inactive); in the assay on OVCAR-3, 39.2 µM (inactive); in the assay on NCI/ADR-RES, 48.3 µM (inactive); in the assay with 786-0, 22.3 µM (inactive). For the same molecule, the GI50 is 18.1 µM (inactive) in the assay with MDA-MB-231; > 100 µM (inactive) with MDA-MB-435; 28.6 µM (inactive) in the assay with HCC 2998; 50 µM (inactive) with OVCAR-4; 7.74 µM (inactive) with SNB-75; 17.1 µM (inactive) in the assay on NCI-H460. In addition, the GI50 in the assay with OVCAR-5 is 71.9 µM (inactive); with IGROV-1, 21.4 µM (inactive); with RPMI-8226 it was 31.8 µM (inactive); in the assay with UO-31, 34.2 µM (inactive); with SF-268 it was 37.8 µM (inactive); in the assay on PC-3 it was 22.4 µM (inactive). Besides, the GI50 was 51.4 µM (inactive) with EKVX and 25.6 µM (inactive) in the assay on SF-539.
